Laboratory results published in BigSolDB 2.1.

C/C(=C/C(C)=N/c1c(C(C)C)cccc1C(C)C)Nc1c(C(C)C)cccc1C(C)C
solubility (mole fraction)
Conditions | in THF | in ethanol | in methanol | in n-hexane | in toluene
268.15 K | 0.101 | 0.0008 | – | 0.0374 | 0.054
273.15 K | 0.108 | 0.0009 | – | 0.0417 | 0.061
278.15 K | 0.114 | 0.001 | – | 0.0464 | 0.0673
283.15 K | 0.122 | 0.0013 | 0.0001 | 0.048 | 0.078
288.15 K | 0.138 | 0.0015 | 0.0002 | 0.0546 | 0.087
293.15 K | 0.15 | 0.0019 | 0.0002 | 0.0609 | 0.099
298.15 K | 0.169 | 0.0022 | 0.0003 | 0.0699 | 0.108
303.15 K | 0.184 | 0.0025 | 0.0004 | 0.078 | 0.127
308.15 K | 0.199 | 0.003 | 0.0005 | 0.0891 | 0.145
313.15 K | 0.223 | 0.0036 | 0.0007 | 0.103 | 0.151
318.15 K | – | – | 0.0008 | – | –
